The target in one assay is T1, Cannabinoid CB1 Receptor (Homo sapiens, UniProt P21554).
T1 construct: expressed in transfected cells
Briefly: Binding assay for CB1 agonists or inverse agonists (radioligand competition, membranes of transfected SK-N-MC cells). The following applies: for inhibition at 0.2 µM: read-out: Cannabinoid CB1 Receptor Binding percent inhibition. (Displacement assays read how much labelled ligand stays bound in the presence of the test substance.)

The next assay addresses T2, Cannabinoid CB2 Receptor (Homo sapiens, UniProt P34972).
T2 construct: expressed in transfected cells
As to the kind of experiment: Binding assay for CB2 agonists or inverse agonists (radioligand competition, membranes of transfected SK-N-MC cells). The following applies: for inhibition at 0.2 µM: read-out: Cannabinoid CB2 Receptor Binding percent inhibition.

[1] abbreviates: test concentration of 0.2 μM, compounds without an IC50 binding value.

pIC50: −log10 of the molar value. Where two headings read alike, the source gives them in different places.

For orientation: inhibition means the drop in the measured response relative to a control, in per cent. In general, pIC50 refers to −log10 of the IC50, conventionally taken in molar units. A lower pIC50 goes with a high IC50.

T2 sequence (P34972 whole entry): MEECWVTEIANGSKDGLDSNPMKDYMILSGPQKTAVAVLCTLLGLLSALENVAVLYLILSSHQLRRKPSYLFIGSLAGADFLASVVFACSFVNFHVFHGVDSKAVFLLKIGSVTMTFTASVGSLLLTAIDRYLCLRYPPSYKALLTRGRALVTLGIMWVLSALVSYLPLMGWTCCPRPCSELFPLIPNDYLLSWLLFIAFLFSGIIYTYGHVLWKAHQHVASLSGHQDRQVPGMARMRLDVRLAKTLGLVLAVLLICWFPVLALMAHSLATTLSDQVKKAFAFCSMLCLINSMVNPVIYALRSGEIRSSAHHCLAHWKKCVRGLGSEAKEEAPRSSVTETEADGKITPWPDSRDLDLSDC
T1 sequence (P21554 whole entry): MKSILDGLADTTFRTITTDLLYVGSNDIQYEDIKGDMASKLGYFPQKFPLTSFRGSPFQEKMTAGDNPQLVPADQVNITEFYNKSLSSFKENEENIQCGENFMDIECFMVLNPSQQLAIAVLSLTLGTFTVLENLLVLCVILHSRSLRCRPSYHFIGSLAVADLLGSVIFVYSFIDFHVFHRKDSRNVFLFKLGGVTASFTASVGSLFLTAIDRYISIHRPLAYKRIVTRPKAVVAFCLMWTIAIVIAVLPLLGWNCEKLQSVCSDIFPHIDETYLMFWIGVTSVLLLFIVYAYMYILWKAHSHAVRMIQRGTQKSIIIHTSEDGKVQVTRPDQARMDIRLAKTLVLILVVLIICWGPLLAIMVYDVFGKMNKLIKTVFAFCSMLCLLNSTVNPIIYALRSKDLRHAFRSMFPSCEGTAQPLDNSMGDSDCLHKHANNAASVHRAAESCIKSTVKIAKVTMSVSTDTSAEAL

In the case of `C[C@H](NC(=O)c1nn(-c2ccc(Cl)cc2Cl)c2c1CN(C(=O)OC(C)(C)C)C/C2=C\c1ccc(F)cc1)C1CCCCC1` [Cpd 4, (7E)-3-[(1S)-1-cyclohexyl-ethylcarbamoyl]-1-(2,4-dichloro-phenyl)-7-(4-fluoro-benzylidene)-1,4,6,7-tetrahydro-pyrazolo[4,3-c]pyridine-5-carboxylic acid tert-butyl ester], the inhibition at 0.2 µM on Cannabinoid CB1 Receptor worked out at 48%; at Cannabinoid CB2 Receptor, 9%. `CC12CCC(C1)C(C)(C)C2NC(=O)c1nn(Cc2ccccc2)c2c1CN(C(=O)OCc1ccccc1)CC2` (stereo not drawn) [Cpd 108, 1-benzyl-3-(1,3,3-trimethyl-bicyclo[2.2.1]hept-2-ylcarbamoyl)-1,4,6,7-tetrahydro-pyrazolo[4,3-c]pyridine-5-carboxylic acid benzyl ester]: the pIC50 is 6.70 at Cannabinoid CB1 Receptor and 8.70 on Cannabinoid CB2 Receptor. Turning to `CCNC(=O)N1C/C(=C\c2ccc(OC)cc2)c2c(c(C(=O)NN3CC4CCCC4C3)nn2-c2ccc(Cl)cc2Cl)C1` (stereo not drawn) [Cpd 101, (7E)-1-(2,4-dichloro-phenyl)-7-(4-methoxy-benzylidene)-1,4,6,7-tetrahydro-pyrazolo[4,3-c]pyridine-3,5-dicarboxylic acid 5-ethylamide 3-[(hexahydro-cyclopenta[c]pyrrol-2-yl)-amide]], the inhibition at 0.2 µM on Cannabinoid CB1 Receptor (setting [1]) stood at 68%; on Cannabinoid CB2 Receptor (setting [1]), 15%. Taken in the same sequence, the figures for `COc1ccc(/C=C2\CN(C(=O)OC(C)(C)C)Cc3c(C(=O)NN4CC5CCCC5C4)nn(-c4ccc(Cl)cc4Cl)c32)cc1` (stereo not drawn) [Cpd 94, (7E)-1-(2,4-dichloro-phenyl)-3-(hexahydro-cyclopenta[c]pyrrol-2-ylcarbamoyl)-7-(4-methoxy-benzylidene)-1,4,6,7-tetrahydro-pyrazolo[4,3-c]pyridine-5-carboxylic acid tert-butyl ester] were 70% and 38%. The like results for `CC(C)(C)OC(=O)N1C/C(=C\c2ccc(F)cc2)c2c(c(C(=O)NN3CCC(O)CC3)nn2-c2ccc(Cl)cc2Cl)C1` [Cpd 143, (7E)-1-(2,4-dichloro-phenyl)-7-(4-fluoro-benzylidene)-3-(4-hydroxy-piperidin-1-ylcarbamoyl)-1,4,6,7-tetrahydro-pyrazolo[4,3-c]pyridine-5-carboxylic acid tert-butyl ester] were, in that order, 4% and 0%. Consider `COc1ccc(/C=C2\CN(C(=O)OC(C)(C)C)Cc3c(C(=O)NN4CCC(O)CC4)nn(-c4ccc(Cl)cc4Cl)c32)cc1` [Cpd 141, (7E)-1-(2,4-dichloro-phenyl)-3-(4-hydroxy-piperidin-1-ylcarbamoyl)-7-(4-methoxy-benzylidene)-1,4,6,7-tetrahydro-pyrazolo[4,3-c]pyridine-5-carboxylic acid tert-butyl ester], for which the inhibition at 0.2 µM on Cannabinoid CB1 Receptor (setting [1]) came to 6%; on Cannabinoid CB2 Receptor (setting [1]), 9%. The like results for `CC(=O)N1C/C(=C\c2ccc(F)cc2)c2c(c(C(=O)NN3CCCCC3)nn2-c2ccc(Cl)cc2)C1` [Cpd 81, (7E)-5-acetyl-1-(4-chloro-phenyl)-7-(4-fluoro-benzylidene)-4,5,6,7-tetrahydro-1H-pyrazolo[4,3-c]pyridine-3-carboxylic acid piperidin-1-ylamide] were, in that order, 10% and 22%.

In the case of `CC(C)(C)OC(=O)N1C/C(=C\c2ccc(F)cc2)c2c(c(C(=O)N3CCCCC3)nn2-c2ccc(Cl)cc2Cl)C1` [Cpd 135, (7E)-1-(2,4-dichloro-phenyl)-7-(4-fluoro-benzylidene)-3-(piperidine-1-carbonyl)-1,4,6,7-tetrahydro-pyrazolo[4,3-c]pyridine-5-carboxylic acid tert-butyl ester], the inhibition at 0.2 µM at Cannabinoid CB1 Receptor (setting [1]) is 40%; at Cannabinoid CB2 Receptor (setting [1]), 28%. Consider `COC(=O)N1C/C(=C\c2ccc(F)cc2)c2c(c(C(=O)NN3CCC(O)CC3)nn2-c2ccc(Cl)cc2Cl)C1` [Cpd 146, (7E)-1-(2,4-dichloro-phenyl)-7-(4-fluoro-benzylidene)-3-(4-hydroxy-piperidin-1-ylcarbamoyl)-1,4,6,7-tetrahydro-pyrazolo[4,3-c]pyridine-5-carboxylic acid methyl ester], for which the inhibition at 0.2 µM at Cannabinoid CB1 Receptor (setting [1]) is 40%; at Cannabinoid CB2 Receptor (setting [1]), 11%. Taken in the same sequence, the figures for `CCNC(=O)N1C/C(=C\c2ccc(F)cc2)c2c(c(C(=O)NN3CCCCC3)nn2-c2ccc(Cl)cc2)C1` [Cpd 83, (7E)-1-(4-chloro-phenyl)-7-(4-fluoro-benzylidene)-1,4,6,7-tetrahydro-pyrazolo[4,3-c]pyridine-3,5-dicarboxylic acid 5-ethylamide 3-piperidin-1-ylamide] were 32% and 19%. Consider `CC(C)(C)OC(=O)N1C/C(=C\c2ccc(F)cc2)c2c(c(C(=O)NN3CCCCC3)nn2-c2ccc(Cl)cc2)C1` [Cpd 74, (7E)-1-(4-chloro-phenyl)-7-(4-fluoro-benzylidene)-3-(piperidin-1-ylcarbamoyl)-1,4,6,7-tetrahydro-pyrazolo[4,3-c]pyridine-5-carboxylic acid tert-butyl ester], for which the inhibition at 0.2 µM at Cannabinoid CB1 Receptor (setting [1]) was found to be 39%; on Cannabinoid CB2 Receptor (setting [1]), 3%. `CC12CCC(C1)C(C)(C)C2NC(=O)c1nn(C2CCCCC2)c2c1CN(C(=O)OCc1ccccc1)CC2` (stereo not drawn) [Cpd 121, 1-cyclohexyl-3-(1,3,3-trimethyl-bicyclo[2.2.1]hept-2-ylcarbamoyl)-1,4,6,7-tetrahydro-pyrazolo[4,3-c]pyridine-5-carboxylic acid benzyl ester]: the values for the pIC50 at Cannabinoid CB1 Receptor and on Cannabinoid CB2 Receptor were 5.82 and 7.05, respectively.

The compound `COC(=O)N1C/C(=C\c2ccc(F)cc2)c2c(c(C(=O)NN3CCCCC3)nn2-c2ccc(Cl)cc2)C1` [Cpd 82, (7E)-1-(4-chloro-phenyl)-7-(4-fluoro-benzylidene)-3-(piperidin-1-ylcarbamoyl)-1,4,6,7-tetrahydro-pyrazolo[4,3-c]pyridine-5-carboxylic acid methyl ester] gave a pIC50 at Cannabinoid CB1 Receptor of 7.22. Moreover, the “Cannabinoid CB2 Receptor Binding percent inhibition” value at Cannabinoid CB2 Receptor (setting [1]) was found to be 32%. Regarding `CC(C)(C)OC(=O)N1C/C(=C\c2ccc(F)cc2)c2c(c(C(=O)NN3CC4CCCC4C3)nn2-c2ccc(Cl)cc2)C1` (stereo not drawn) [Cpd 84, (7E)-1-(4-chloro-phenyl)-7-(4-fluoro-benzylidene)-3-(hexahydro-cyclopenta[c]pyrrol-2-ylcarbamoyl)-1,4,6,7-tetrahydro-pyrazolo[4,3-c]pyridine-5-carboxylic acid tert-butyl ester], the values for the inhibition at 0.2 µM on Cannabinoid CB1 Receptor (setting [1]) and on Cannabinoid CB2 Receptor (setting [1]) were 30% and 12%, respectively. `COc1ccc(/C=C2\CN(S(=O)(=O)N(C)C)Cc3c(C(=O)N[C@H](C)c4ccccc4)nn(-c4ccc(Cl)cc4Cl)c32)cc1` [Cpd 47] showed a pIC50 on Cannabinoid CB1 Receptor of 8.70. Moreover, at Cannabinoid CB2 Receptor (setting [1]), the “Cannabinoid CB2 Receptor Binding percent inhibition” value is on record as 66%. Turning to `CC(C)(C)OC(=O)N1CCc2c(c(C(=O)NC3C4CC5CC(C4)CC3C5)nn2C2CCCCC2)C1` (stereo not drawn) [Cpd 130, 3-(adamantan-2-ylcarbamoyl)-1-cyclohexyl-1,4,6,7-tetrahydro-pyrazolo[4,3-c]pyridine-5-carboxylic acid tert-butyl ester], the pIC50 at Cannabinoid CB1 Receptor was 7.22. On to `COc1ccc(/C=C2\CN(C(=O)OC(C)(C)C)Cc3c(C(=O)N4CCCCC4)nn(-c4ccc(Cl)cc4Cl)c32)cc1` [Cpd 137, (7E)-1-(2,4-dichloro-phenyl)-7-(4-methoxy-benzylidene)-3-(piperidine-1-carbonyl)-1,4,6,7-tetrahydro-pyrazolo[4,3-c]pyridine-5-carboxylic acid tert-butyl ester], for which the inhibition at 0.2 µM on Cannabinoid CB1 Receptor (setting [1]) was 34%; at Cannabinoid CB2 Receptor (setting [1]), 42%. The like results for `CC(C)(C)OC(=O)N1C/C(=C\c2ccc(F)cc2)c2c(c(C(=O)NN3CC4CCCC4C3)nn2-c2ccc(Cl)cc2Cl)C1` (stereo not drawn) [Cpd 88, (7E)-1-(2,4-dichloro-phenyl)-7-(4-fluoro-benzylidene)-3-(hexahydro-cyclopenta[c]pyrrol-2-ylcarbamoyl)-1,4,6,7-tetrahydro-pyrazolo[4,3-c]pyridine-5-carboxylic acid tert-butyl ester] were, in that order, 53% and 0%. The like results for `CC(=O)N1C/C(=C\c2ccc(F)cc2)c2c(c(C(=O)N(C(C)=O)N3CC4CCCC4C3)nn2-c2ccc(Cl)cc2)C1` (stereo not drawn) [Cpd 136, (7E)-5-acetyl-1-(4-chloro-phenyl)-7-(4-fluoro-benzylidene)-4,5,6,7-tetrahydro-1H-pyrazolo[4,3-c]pyridine-3-carboxylic acid acetyl-(hexahydro-cyclopenta[c]pyrrol-2-yl)-amide] were, in that order, 39% and 22%.

Turning to `C[C@H](NC(=O)c1nn(-c2ccc(Cl)cc2Cl)c2c1CNC/C2=C\c1ccc(F)cc1)C1CCCCC1` [Cpd 5, (7E)-1-(2,4-dichloro-phenyl)-7-(4-fluoro-benzylidene)-4,5,6,7-tetrahydro-1H-pyrazolo[4,3-c]pyridine-3-carboxylic acid [(1S)-1-cyclohexyl-ethyl]-amide], the inhibition at 0.2 µM at Cannabinoid CB1 Receptor was determined as 48%; on Cannabinoid CB2 Receptor it was 8%.

As to `C[C@@H](NC(=O)c1nn(-c2ccc(Cl)cc2Cl)c2c1CN(CC(=O)O)C/C2=C\c1ccc(F)cc1)c1ccccc1` [Cpd 52, (7E)-[1-(2,4-dichloro-phenyl)-7-(4-fluoro-benzylidene)-3-[(1R)-1-phenyl-ethylcarbamoyl]-1,4,6,7-tetrahydro-pyrazolo[4,3-c]pyridin-5-yl]-acetic acid], the figures for the inhibition at 0.2 µM on Cannabinoid CB1 Receptor (setting [1]) and at Cannabinoid CB2 Receptor (setting [1]) were 38% and 7%, respectively. Turning to `CCCCn1nc(C(=O)NN2CCCCC2)c2c1CCN(C(=O)OC)C2` [Cpd 102, 1-butyl-3-(piperidin-1-ylcarbamoyl)-1,4,6,7-tetrahydro-pyrazolo[4,3-c]pyridine-5-carboxylic acid methyl ester], at Cannabinoid CB2 Receptor (setting [1]), the inhibition at 0.2 µM worked out at 23%.

The record behind these values is patent publication US20060089378A1 (priority 2004, published 2006).
